Experiments:
[1] = Effect of N-acetyl methionine (NAM) on stability of 6522/6555 with 50 mM AAPH at 80° C. for 30 mins; assay type: physicochemical; conditions: pH 5.0, 2 mg/mL
Method: Effect of N-acetyl methionine (NAM) on the stability of the compound 6522 (6522 compound structure immediately below) 80° C. in the presence of AAPH 2,2′-azobis-(2-amidopropane)hydrochloride, a free radical generator.
• Concentration:2 mg/mL • Reaction condition: add 50 mM AAPH, at 80° C. for 30 mins

[2] = Effect of NAM on stability of 6522/6555 with 50 mM AAPH at 60° C. for 60 mins as a function of pH; assay type: physicochemical; conditions: 5 mM NAM and 50 mM AAPH
Method: Effect of […] N-acetyl methionine (NAM) on the stability of the compounds 6522 (6522 compound structure shown above) at 60° C. in the presence of AAPH 2,2′-azobis-(2-amidopropane)hydrochloride as a function of pH.
• Concentration: of 6522 2 mg/mL • Reaction condition: With 5 mM NAM and 50 mM AAPH, at 60° C. for 60 mins

recombinant human FAP = recombinant human FAP (Homo sapiens (Human), UniProt Q12884); assay: In vitro enzyme IC50 assay, FAP (Example 16); assay type: biochemical; conditions: 10 min preincubation at 25° C.; Z-Gly-Pro-AMC
Chain of recombinant human FAP (Q12884 whole entry): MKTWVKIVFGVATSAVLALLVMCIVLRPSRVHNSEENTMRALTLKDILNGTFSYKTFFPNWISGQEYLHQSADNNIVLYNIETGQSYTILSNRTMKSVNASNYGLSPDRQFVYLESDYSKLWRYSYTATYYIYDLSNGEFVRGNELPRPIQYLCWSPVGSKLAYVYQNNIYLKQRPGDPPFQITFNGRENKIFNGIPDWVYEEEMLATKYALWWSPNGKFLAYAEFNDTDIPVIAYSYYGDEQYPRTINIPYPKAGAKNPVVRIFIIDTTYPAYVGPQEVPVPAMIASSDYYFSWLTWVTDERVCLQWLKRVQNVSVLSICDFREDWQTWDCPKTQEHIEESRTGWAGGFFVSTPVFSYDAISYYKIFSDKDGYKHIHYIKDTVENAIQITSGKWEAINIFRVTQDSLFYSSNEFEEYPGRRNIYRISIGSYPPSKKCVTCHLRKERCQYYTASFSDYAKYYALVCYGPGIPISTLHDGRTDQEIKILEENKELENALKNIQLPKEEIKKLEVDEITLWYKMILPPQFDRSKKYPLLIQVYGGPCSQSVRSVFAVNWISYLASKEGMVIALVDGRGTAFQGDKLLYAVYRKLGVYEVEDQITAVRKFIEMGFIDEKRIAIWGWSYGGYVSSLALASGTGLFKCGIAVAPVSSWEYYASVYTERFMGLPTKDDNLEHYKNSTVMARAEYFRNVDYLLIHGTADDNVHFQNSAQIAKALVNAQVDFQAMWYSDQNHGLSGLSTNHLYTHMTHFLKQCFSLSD
Method: Biological Materials: For the in vitro IC50 determination assays, recombinant human DPPIV, DPP9, FAP, and PREP were purchased from R&D Systems, and DPP8 was from Biomol International. Buffer systems used were A (25 mM Tris, pH 8.0), B (50 mM Tris, pH 7.5), C (50 mM Tris, 140 mM NaCl, pH 7.5), D (25 mM Tris, 250 mM NaCl, pH 7.5), and E (20 mM Tris, 20 mM KCl, pH 7.4). […] Substrate Specificity Assay. Peptide libraries (0.21 mM) were incubated for 24 h with 1 nM FAP in buffer E at 37° C. The reaction was quenched by the addition of 1.2 N HCl. The samples were analyzed by reverse-phase HPLC-MS on a Thermo Finnigan LCQ Duo, quantifying the peaks in the resulting base peak chromatograms. Relative cleavage values were determined by comparing the postquench abundance of intact peptides to those in the initial library.
In Vitro Enzyme IC50 Assays. Enzymatic activity of DPPIV, DPP8, DPP9, FAP, and PREP was measured at 25° C. on a Molecular Devices M2e multidetection microtiter plate reader, monitoring the fluorescence at an excitation wavelength of 380 nm and an emission wavelength of 460 nm. The substrate was either H-Gly-Pro-AMC for the DPPIV, DPP8, and DPP9 assays or Z-Gly-Pro-AMC for the FAP and PREP assays. […] The final enzyme concentrations were 0.1, 0.8, 0.4, 1.2, and 0.6 nM for DPPIV, DPP8, DPP9, FAP, and PREP, respectively. […] Those prepared in pH 2.0 solution were preincubated at 25° C. for 4 h prior to dilution. Immediately prior to the commencement of the experiment, the 100 mM stocks were further diluted to 10^-3 M in the appropriate assay buffer, from which 1:10 serial dilutions were prepared. All inhibitors were tested in triplicate.

[3] = target: recombinant human prolyl oligopeptidase (PREP) (Homo sapiens (Human), UniProt P48147); assay: In vitro assay prolyl oligopeptidase IC50 (Example 21); assay type: biochemical
Chain of recombinant human prolyl oligopeptidase (PREP) (P48147 whole entry): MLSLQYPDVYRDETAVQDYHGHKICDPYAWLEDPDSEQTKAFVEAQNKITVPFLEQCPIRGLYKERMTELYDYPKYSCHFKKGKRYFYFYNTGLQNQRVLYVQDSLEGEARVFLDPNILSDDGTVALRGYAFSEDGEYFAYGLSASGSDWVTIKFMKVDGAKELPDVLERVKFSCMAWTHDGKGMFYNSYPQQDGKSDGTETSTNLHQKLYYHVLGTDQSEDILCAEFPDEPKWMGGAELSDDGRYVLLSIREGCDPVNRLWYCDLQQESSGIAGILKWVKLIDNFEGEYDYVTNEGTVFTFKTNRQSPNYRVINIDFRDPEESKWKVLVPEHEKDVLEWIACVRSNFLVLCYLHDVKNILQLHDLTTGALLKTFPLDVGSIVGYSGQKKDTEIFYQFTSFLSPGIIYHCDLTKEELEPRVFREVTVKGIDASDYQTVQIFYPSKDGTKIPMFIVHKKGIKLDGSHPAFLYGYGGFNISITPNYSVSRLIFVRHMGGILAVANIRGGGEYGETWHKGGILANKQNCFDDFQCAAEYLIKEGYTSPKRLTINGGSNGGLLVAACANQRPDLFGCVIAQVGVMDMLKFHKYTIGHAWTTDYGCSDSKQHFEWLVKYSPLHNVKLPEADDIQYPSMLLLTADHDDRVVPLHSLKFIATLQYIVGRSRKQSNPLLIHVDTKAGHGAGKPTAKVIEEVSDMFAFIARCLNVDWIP

[4] = target: recombinant human dipeptidyl peptidase IV (DPPIV) (Homo sapiens (Human), UniProt P27487); assay: In vitro assay dipeptidyl peptidase IV IC50 (Example 21); assay type: biochemical
Chain of recombinant human dipeptidyl peptidase IV (DPPIV) (P27487 whole entry): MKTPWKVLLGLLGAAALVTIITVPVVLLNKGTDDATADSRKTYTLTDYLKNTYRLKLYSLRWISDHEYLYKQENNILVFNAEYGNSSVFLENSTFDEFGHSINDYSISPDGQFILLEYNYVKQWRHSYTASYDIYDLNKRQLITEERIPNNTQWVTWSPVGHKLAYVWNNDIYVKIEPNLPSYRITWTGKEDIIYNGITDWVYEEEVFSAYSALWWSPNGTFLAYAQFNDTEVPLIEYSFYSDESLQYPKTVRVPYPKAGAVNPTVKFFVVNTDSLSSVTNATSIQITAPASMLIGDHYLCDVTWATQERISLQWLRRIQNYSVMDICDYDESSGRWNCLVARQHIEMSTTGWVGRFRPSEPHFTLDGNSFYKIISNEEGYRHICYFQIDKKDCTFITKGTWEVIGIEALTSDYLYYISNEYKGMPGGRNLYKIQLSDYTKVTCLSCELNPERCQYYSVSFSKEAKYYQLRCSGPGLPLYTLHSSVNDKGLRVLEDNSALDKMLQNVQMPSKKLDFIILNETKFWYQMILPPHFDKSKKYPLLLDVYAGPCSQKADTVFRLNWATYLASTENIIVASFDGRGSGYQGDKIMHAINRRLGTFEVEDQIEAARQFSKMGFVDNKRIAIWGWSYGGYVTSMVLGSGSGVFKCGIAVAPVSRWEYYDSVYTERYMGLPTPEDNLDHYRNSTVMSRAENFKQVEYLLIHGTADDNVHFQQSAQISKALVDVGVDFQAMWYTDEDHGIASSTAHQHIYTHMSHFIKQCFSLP

[5] = Degradation in aqueous solution of pH about 3 during HPLC purification and lyophilization; conditions: during HPLC purification and subsequent lyophilization

6555 Remain (%) ([1]; NAM 0 mM): 64.5% | 6555 Remain (%) ([1]; NAM 10 mM): 81.7% | 6555 Remain (%) ([1]; NAM 40 mM): 82.9% | 6555 Remain (%) ([1]; NAM 80 mM): 85.0% | 6555 Remain (%) ([1]; NAM 100 mM): 85.6% | 6555 Remain (%) ([1]; NAM 200 mM): 87.3% | 6555 Remain (%) ([1]; NAM 400 mM): 90.2% | 6555 Remain (%) ([2]; pH 4, 2 mg/mL): 76.2% | 6555 Remain (%) ([2]; pH 5, 2 mg/mL): 70.0% | IC50 (recombinant human FAP): 0.7 nM | IC50 [3]: 870 nM | IC50 [4]: > 100000 nM | degradation in aqueous solution [5]: did not observe any sign of degradation
SMILES: C[C@@H](NC(=O)c1ccc(CNC(=O)CN2CCN(CC(=O)O)CCN(CC(=O)O)CCN(CC(=O)O)CC2)cc1)C(=O)N1CCC[C@H]1B(O)O [compound 6555, DOTA-aminomethyl-Bz-D-Ala-boroPro]

Reference: patent US20240207292A1, “BORONIC ACID COMPOUNDS, COMPOSITIONS AND METHODS” (Trustees of Tufts College, priority 2021, published 2024)
